Values after ≈ are worked out from the molar mass of the structure shown. Like-named read-outs stand apart in the source and are kept apart here.
Assays:
candida Albicans 02-6 [1] = experiment: In vivo protective test in infected mice; settings: for ED50: infection 2.07 × 10^4 CFU/ml; for Survival: 10 mice, within 7 days after infection
Procedure: 2˜3 monocolonies of selected tested fungus were inoculated in Sabouraud liquor culture medium, which was cultured for 18 hours at 37° C., and then it was diluted with 5% sterilized dried yeast liquor for next uses.
3. Healthy mice (lived in Kunming, China) weighed 18˜22 g were divided into groups randomly with 5 mice in each group. The fungal liquor 0.5 ml was injected into a mouse, which was observed continuously for 7 days after infection. Mortality of the mice was recorded, and the minimum fungal dose that caused the mice be with a 100% mortality was named as MLD, which also was regarded as infection fungal dose in vivo protective test.
All test drugs were confected to requested concentration with 0.5% CMC including Fluoroconazole and 4,4′-biisofraxidin.
Test mice were divided into groups randomly according to gender and weight, 5 males and 5 females in each group. The infection fungal liquor 0.5 ml was injected into each mouse at the abdominal region at 0.5 ml per mouse. Two hours prior to the infection and 4 hours after infection, mice were orally administered with Fluoroconazole or 4,4′-biisofraxidin by intragastric gavage at various concentration. The comparative group was tested at the same time. Mortality was recorded within 7 days after infection, and effective dosage at half (median effective dose, ED50) and 95% confidence limit were calculated by the Bliss's method. Fluoroconazole and 4,4′-biisofraxidin were tested on their in vivo protection activity on candida Albicans 02-6 infected mice, and ED50 was calculated by the Bliss's method at 95% confidence limit.

Cryptococcus neoformans = experiment: In vitro drug sensitivity MIC test; assay type: cell-based
Procedure: (§1) The tested fungi were confected to a suspension with normal saline, and further diluted to a suspension with the turbidity of more than 2.0 McFarland Standards (McF). Then, the suspension was diluted 100 times with normal saline, and diluted 10 times with RPMI1640, and the sample was diluted 2 times, which was cultured for 72 to 96 hours at a 96-well culture dish while being gently agitated and assayed for photoelectric colorimetric assay at 490 nm.
(§2) Tested fungi include Saccharomyces, candida Albicans 01-5, 01-1, 02-6, candida Albicans CMCC, Aspergillus niger, Cryptococcus neoformans, Trichophyton rubrum, and Trichophyton verrucosum and MIC Results were listed at Table 2.

candida Albicans 01-1 = experiment: In vitro drug sensitivity MIC test; assay type: cell-based
Procedure: as §1, §2

Trichophyton rubrum = experiment: In vitro drug sensitivity MIC test; assay type: cell-based
Procedure: as §1, §2

candida Albicans 02-6 [2] = experiment: In vitro drug sensitivity MIC test; assay type: cell-based
Procedure: as §1, §2

candida Albicans CMCC = experiment: In vitro drug sensitivity MIC test; assay type: cell-based
Procedure: as §1, §2

Trichophyton verrucosum = experiment: In vitro drug sensitivity MIC test; assay type: cell-based
Procedure: as §1, §2

Aspergillus niger = experiment: In vitro drug sensitivity MIC test; assay type: cell-based
Procedure: as §1, §2

candida Albicans [3] = experiment: In vitro drug sensitivity MIC test; assay type: cell-based
Procedure: as §1, §2

candida Albicans 01-5 = experiment: In vitro drug sensitivity MIC test; assay type: cell-based
Procedure: as §1, §2

Saccharomyces = experiment: In vitro drug sensitivity MIC test; assay type: cell-based
Procedure: as §1, §2

[4] = Acute toxicity test in vivo in mice (Example 21); settings: for death: after testing 14 days, 14 mice (4,4′-biisofraxidin), 4 mice (Fluoroconazole)
[5] = Comparison of liver toxicity, serum ALT/AST of ICR mice; assay type: in vivo; settings: 1.6 g/kg oral, mean (values of each sample)
Procedure: ICR mice were orally administered with 4,4′-biisofraxidin or Fluoconazole at the same dosage of 1.6 g/kg, and blood samples were taken at 4 hours and 24 hours after the administration, and serum was separated from blood samples for testing liver indices of asparate aminotransferase test (AST) and alanine aminotransferase test (ALT).

[6] = Acute toxicity test, oral, ICR mice (Example 22); settings: for mortality: single oral dose (5 g/kg for 4,4′-biisofraxidin)
Text: Acute toxicity of 4,4′-biisofraxidin and Fluoconazole were simultaneously evaluated and the toxicity reaction and mortality were observed and compared for values of LD50 for ICR mice which were orally administered with 4,4′-biisofraxidin or Fluoconazole.

[7] = test system: mice medulla polychromatic erythrocyte; experiment: Micronucleus test of mice medulla; assay type: in vivo, ICR mice
Procedure: Seventy ICR mice were randomly divided into 7 groups with 10 mice per group having 5 males and 5 females in each group. The maximum tolerance dose (MTD) of the mice was more than 5000 mg/kg for 4,4′-biisofraxidin by intragastric gavage, so that the maximum dosage was 5000 mg/kg. Four dosage groups were set up with dosage amount of 5000, 2500, 1250, and 625 mg/kg, one negative and one positive control group. The intragastric gavage was carried out at once per day consecutively for 2 days. Samples were taken at 24 hours after the last intragastric administration and inspected under microscope.

CHL cell = experiment: Chromosome aberration test of CHL mammal cell; assay type: cell-based; settings: for mutagenicity: 24 hours, -S9
Procedure: The purpose of the Example was to assess whether 4,4′-biisofraxidin caused the chromosome aberration of CHL cell. Firstly, Median Inhibitory Concentration (IC50) was obtained by general method and regarded as the maximum dosage. Then, the maximum dosage was diluted at 0.5 time at multiple times to get three dosage groups. The experiment was conducted at a —S9 system (without hamster liver S9 system). […] The antifungal compound was added to the cultured cell directly for 24 hours in order to observe whether 4,4′-biisofraxidin caused chromosome aberration in CHL cell. […] Therefore, 4,4′-biisofraxidin was a weak mutagen at a relatively high dosage under the test conditions.

[8] = test system: S. Typhimurium TA97, TA98, TA 100, and TA102; experiment: Bacteria reverse mutation test; assay type: cell-based; settings: without S9
Procedure: According to the conditions of mutation test in the Guide Compilation of New Medicament (Western Medicament) Before Clinic (Pharmacy, Pharmacology, and Toxicology) (Edition July 1993, Bureau of Pharmaceutical Policy, Chinese Department of Health), 4,4′-biisofraxidin was tested at a dosage of 5, 50, 500, 1000, and 5000 μg/dish in the system without S9.

candida Albicans [9] = experiment: Inhibiting zone on candida Albicans; assay type: cell-based; settings: at the concentration of 10 μg/ml
Procedure: [drawing 30] was tested by Jiangsu Hengrui Pharmaceutical Co., Ltd. The bioactivity against fungal infection of various antibiotics were tested.

[10] = drug dose 65.5 mg/kg, intragastric gavage
[11] = drug dose 89.2 mg/kg, intragastric gavage
[12] = drug dose 102.4 mg/kg, intragastric gavage
[13] = drug dose 128 mg/kg, intragastric gavage
[14] = drug dose 160 mg/kg, intragastric gavage
[15] = drug dose 200 mg/kg, intragastric gavage
[16] = candida Albicans, second strain without code (r8)

Compound: OC(Cn1cncn1)(Cn1cncn1)c1ccc(F)cc1F [Fluoroconazole, reference compound]
- ED50 (candida Albicans 02-6 [1]; Candida albicans, Bliss's method, intragastric gavage, read-out: ED50): 136 mg/kg
- Survival rate (%) (candida Albicans 02-6 [1]; [10]): 0%
- Survival (candida Albicans 02-6 [1]; [10]): 0
- Survival rate (%) (candida Albicans 02-6 [1]; [11]): 20%
- Survival (candida Albicans 02-6 [1]; [11]): 2
- Survival rate (%) (candida Albicans 02-6 [1]; [12]): 40%
- Survival (candida Albicans 02-6 [1]; [12]): 4
- Survival rate (%) (candida Albicans 02-6 [1]; [13]): 40%
- Survival (candida Albicans 02-6 [1]; [13]): 4
- Survival rate (%) (candida Albicans 02-6 [1]; [14]): 60%
- Survival (candida Albicans 02-6 [1]; [14]): 6
- Survival rate (%) (candida Albicans 02-6 [1]; [15]): 80%
- Survival (candida Albicans 02-6 [1]; [15]): 8
- MIC (Cryptococcus neoformans; read-out: MIC): 16 mg/L (≈ 52.2 µM)
- MIC (candida Albicans 01-1; Candida albicans): 128 mg/L (≈ 418 µM)
- MIC (Trichophyton rubrum; read-out: MIC): 16 mg/L (≈ 52.2 µM)
- MIC (candida Albicans 02-6 [2]; read-out: MIC): 64 mg/L (≈ 209 µM)
- MIC (candida Albicans CMCC; read-out: MIC): 64 mg/L (≈ 209 µM)
- MIC (Trichophyton verrucosum): 128 mg/L (≈ 418 µM)
- MIC (Aspergillus niger): > 128 mg/L
- MIC (candida Albicans [3]; Candida albicans): > 128 mg/L
- MIC (candida Albicans [3]; [16]): >128 mg/L
- MIC (candida Albicans 01-5; Candida albicans): 128 mg/L (≈ 418 µM)
- MIC (Saccharomyces; read-out: MIC): 64 mg/L (≈ 209 µM)
- LD50 at 14 days ([4]; ICR, mouse, in vivo, 1.6 g/kg): ~1600 mg/kg
- death [4]: 2
- toxicity relative to 4,4′-biisofraxidin ([4]; mouse, in vivo): three times larger
- ALT (U/L) ([5]; 4 hours after treatment): 84.5 (87, 82) U/L
- AST (U/L) ([5]; 4 hours after treatment): 189.5 (155, 224) U/L
- ALT (U/L) ([5]; 24 hours after treatment): 53.5 (40, 67) U/L
- AST (U/L) ([5]; 24 hours after treatment): 99 (73, 125) U/L
- toxicity reaction ([6]; single oral dose): dispirited and inert
- mortality [6]: 2/4

Compound: 4,4′-biisofraxidin
- micronucleus number ([7]; 5000, 2500, 1250, 625 mg/kg, intragastric, once per day for 2 days, 24 hours after last dose): no effect on inducing increase in micronucleus number
- maximum tolerance dose (MTD) ([7]; mice, intragastric gavage): more than 5000 mg/kg
- 95% confidence limit of ED50 (candida Albicans 02-6 [1]; Bliss's method): (127.97–130.7) mg/kg
- ED50 (candida Albicans 02-6 [1]; Bliss's method, intragastric gavage): 149.50 mg/kg
- Survival rate (%) (candida Albicans 02-6 [1]; [10]): 0%
- Survival (candida Albicans 02-6 [1]; [10]): 0
- Survival rate (%) (candida Albicans 02-6 [1]; [11]): 10%
- Survival (candida Albicans 02-6 [1]; [11]): 1
- Survival rate (%) (candida Albicans 02-6 [1]; [12]): 20%
- Survival (candida Albicans 02-6 [1]; [12]): 3
- Survival rate (%) (candida Albicans 02-6 [1]; [13]): 40%
- Survival (candida Albicans 02-6 [1]; [13]): 4
- Survival rate (%) (candida Albicans 02-6 [1]; [14]): 60%
- Survival (candida Albicans 02-6 [1]; [14]): 6
- Survival rate (%) (candida Albicans 02-6 [1]; [15]): 70%
- Survival (candida Albicans 02-6 [1]; [15]): 7
- protective effect in vivo (candida Albicans 02-6 [1]; intragastric gavage): obvious protective effect
- MIC (Cryptococcus neoformans): 64 mg/L
- MIC (candida Albicans 01-1; candida Albicans 01-1): 64 mg/L
- MIC (Trichophyton rubrum): 16 mg/L
- MIC (candida Albicans 02-6 [2]): 32 mg/L
- MIC (candida Albicans CMCC): >128 mg/L
- MIC (Trichophyton verrucosum): 128 mg/L
- MIC (Aspergillus niger): 128 mg/L
- MIC (candida Albicans [3]; candida Albican, summary in the conclusion): ≥ 128 mg/L
- MIC (candida Albicans [3]; candida Albicans, first strain without code (r7)): 64 mg/L
- MIC (candida Albicans [3]; [16]): >128 mg/L
- MIC (candida Albicans 01-5; candida Albicans 01-5): 64 mg/L
- MIC (Saccharomyces): >128 mg/L
- Median Inhibitory Concentration (IC50) (CHL cell; CHL cell): 248 mg/L
- mutagenicity (CHL cell; high dosage 248 μg/ml): 12%
- mutagenicity (CHL cell; low to medium dosage (62, 124 μg/ml)): 1%
- chromosome aberration conclusion (CHL cell; relatively high dosage): weak mutagen
- death [4]: no death
- MTD ([4]; mice, 14 days): more than 5 g/kg
- half lethal dose (LD50) ([4]; mice, 14 days): undetectable
- effect on growth of bacteria ([8]; high dose 5000 μg/dish): inhibit the growth
- gene mutation ([8]; other dosages): couldn't induce gene mutation
- effect on growth of bacteria ([8]; other four doses (5, 50, 500, 1000 μg/dish)): no obvious effect
- toxicity reaction ([6]; single oral dose): no obvious toxicity reaction
- mortality [6]: 0/10
- MTD ([6]; single oral dose, 14 days observation): higher than 5 g/kg
- inhibiting zone (candida Albicans [9]): 10 mm
